The values below come from patent publication US20220125051A1, “PRE-HARVEST DESICCATION METHOD” (SYNGENTA CROP PROTECTION AG, priority 2019, published 2022).

What all share (test): Post-emergence efficacy, Method A
Common to all, as to assay type: in vivo

For one experiment, the system named is Eleusine indica (ELEIN). To be noted: Application Rate 500 g/Ha, evaluated after 13 days, Method A; for pest or weed control at 500 g/ha: Eleusine indica, post-emergence, 312 h, read-out: Control of weed species after post-emergence application, ELEIN (100=total damage to plant; 0=no damage to plant). The essentials: (§1)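 Visual damage score, 0 (no damage) to 100 (total), taken 13 d after spraying. Pot-grown plants at 14 d post-sowing received an aqueous spray from a 50 g/l acetone/IF50 solution diluted in 0.25% or 1% Empicol ESC70 + 1% ammonium sulphate; glasshouse 24/16 °C, 14 h light, 65% RH, watered twice daily.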

For experiment [1], the system named is Digitaria sanguinalis (DIGSA). To be noted: Application Rate 500 g/Ha, evaluated after 13 days, Method A; for pest or weed control at 500 g/ha: Digitaria sanguinalis, post-emergence, 312 h, read-out: Control of weed species after post-emergence application, DIGSA (100=total damage to plant; 0=no damage to plant). The essentials:
as §1

Another experiment concerns Setaria faberi (SETFA). The following applies: Application Rate 500 g/Ha, evaluated after 13 days, Method A; for pest or weed control at 500 g/ha: Setaria faberi, post-emergence, 312 h, read-out: Control of weed species after post-emergence application, SETFA (100=total damage to plant; 0=no damage to plant). The essentials: as §1
Experiment [2] concerns Amaranthus palmeri (AMAPA). The following applies: Application Rate 500 g/Ha, evaluated after 13 days, Method A; for pest or weed control at 500 g/ha: Amaranthus palmeri, post-emergence, 312 h, read-out: Control of weed species after post-emergence application, AMAPA (100=total damage to plant; 0=no damage to plant). The essentials:
as §1

The test system of experiment [3] is Euphorbia heterophylla (EPHHL). The following applies: Application Rate 500 g/Ha, evaluated after 13 days, Method A; for pest or weed control at 500 g/ha: Euphorbia heterophylla, post-emergence, 312 h, read-out: Control of weed species after post-emergence application, EPHHL (100=total damage to plant; 0=no damage to plant). The method, boiled down:
as §1

Another experiment relates to Lolium perenne (LOLPE). To be noted: Application Rate 500 g/Ha, evaluated after 13 days, Method A; for pest or weed control at 500 g/ha: Lolium perenne, post-emergence, 312 h, read-out: Control of weed species after post-emergence application, LOLPE (100=total damage to plant; 0=no damage to plant). The essentials: as §1
Experiment [4] deals with Ipomoea hederacea (IPOHE). The following applies: Application Rate 500 g/Ha, evaluated after 13 days, Method A; for pest or weed control at 500 g/ha: Ipomoea hederacea, post-emergence, 312 h, read-out: Control of weed species after post-emergence application, IPOHE (100=total damage to plant; 0=no damage to plant). The method, boiled down:
as §1

Experiment [5] relates to Echinochloa crus-galli (ECHCG). The following applies: Application Rate 500 g/Ha, evaluated after 13 days, Method A; for pest or weed control at 500 g/ha: Echinochloa crus-galli, post-emergence, 312 h, read-out: Control of weed species after post-emergence application, ECHCG (100=total damage to plant; 0=no damage to plant). The method, boiled down: as §1
Experiment [6] concerns Chenopodium album (CHEAL). The following applies: Application Rate 500 g/Ha, evaluated after 13 days, Method A; for pest or weed control at 500 g/ha: Chenopodium album, post-emergence, 312 h, read-out: Control of weed species after post-emergence application, CHEAL (100=total damage to plant; 0=no damage to plant). The essentials: as §1

Consider `O=S(=O)([O-])OCCC[n+]1ccc(-c2ncccn2)cn1` [Compound A216], for which the pest or weed control at 500 g/ha is 100% with Eleusine indica (ELEIN); 100% in experiment [1]; 90% with Setaria faberi (SETFA); 100% in experiment [2]; 100% in experiment [3]; 70% in the experiment with Lolium perenne (LOLPE). The pest or weed control at 500 g/ha in experiment [4] came out at 60%; in experiment [5], 70%; in [6], 90%.

As for `CO[N-]C(=O)CC[n+]1ccc(-c2ncccn2)cn1` [Compound A218], the pest or weed control at 500 g/ha in the experiment on Eleusine indica (ELEIN) is 60%; in experiment [1], 70%; with Setaria faberi (SETFA), 60%; in experiment [2] it was 100%; in experiment [3], 80%; in the experiment with Lolium perenne (LOLPE), 70%. For the same compound, the pest or weed control at 500 g/ha in [4] came to 70%; in experiment [5] it was 60%; in [6], 80%.

Turning to `CO[N-]C(=O)C[n+]1ccc(-c2ncccn2)cn1` [Compound A219], the pest or weed control at 500 g/ha in the experiment on Eleusine indica (ELEIN) came out at 100%; in [1], 70%; in the experiment with Setaria faberi (SETFA) it was 90%; in experiment [2], 100%; in [3], 90%; in the experiment with Lolium perenne (LOLPE), 70%. The values for the pest or weed control at 500 g/ha in [4], in experiment [5] and in experiment [6] were 60%, 40% and 80%, respectively.

As for `CC(C[n+]1ccc(-c2ncccn2)cn1)NS(=O)(=O)[O-]` (stereo not drawn) [Compound A221], the pest or weed control at 500 g/ha with Eleusine indica (ELEIN) is 100%; in experiment [1] it was 100%; in the experiment on Setaria faberi (SETFA), 80%; in experiment [2], 100%; in [3], 90%; in the experiment with Lolium perenne (LOLPE), 60%. Further, the results for the pest or weed control at 500 g/ha in experiment [4], in experiment [5] and in [6] were 60%, 60% and 90%, respectively.

As to `CC(CNS(=O)(=O)[O-])[n+]1ccc(-c2ncccn2)cn1` (stereo not drawn) [Compound A223], the pest or weed control at 500 g/ha turned out to be 90% in the experiment on Eleusine indica (ELEIN); 90% in experiment [1]; 80% with Setaria faberi (SETFA); 100% in experiment [2]; 80% in experiment [3]; 80% with Lolium perenne (LOLPE). Also, the figures for the pest or weed control at 500 g/ha in [4], in experiment [5] and in experiment [6] were 60%, 70% and 90%, respectively.

For `O=S(=O)([N-]CC[n+]1ccc(-c2ncccn2)cn1)C(F)(F)F` [Compound A225], the pest or weed control at 500 g/ha worked out at 90% in the experiment with Eleusine indica (ELEIN); 60% in [1]; 30% with Setaria faberi (SETFA); 100% in [2]; 100% in experiment [3]; 30% in the experiment on Lolium perenne (LOLPE). The pest or weed control at 500 g/ha in experiment [4] is 70%; in experiment [5], 30%; in experiment [6] it was 90%.

As to `N[C@H](CC[n+]1ccc(-c2ccncn2)cn1)C(=O)O` [Compound A235], the pest or weed control at 500 g/ha worked out at 10% in the experiment with Eleusine indica (ELEIN); 40% in [1]; 30% in the experiment with Setaria faberi (SETFA); 10% in [2]; 20% in experiment [3]; 0% in the experiment on Lolium perenne (LOLPE). In addition, the pest or weed control at 500 g/ha was found to be 20% in experiment [4], 30% in [5] and 40% in experiment [6].

For `O=P(O)(O)C[n+]1ccc(-c2ccncn2)cn1` [Compound A236], the “Control of weed species after post-emergence application, ELEIN (100=total damage to plant; 0=no damage to plant)” value with Eleusine indica (ELEIN) turned out to be 10. Also, the “Control of weed species after post-emergence application, DIGSA (100=total damage to plant; 0=no damage to plant)” value in [1] is on record as 80. Also, in the experiment on Setaria faberi (SETFA), the “Control of weed species after post-emergence application, SETFA (100=total damage to plant; 0=no damage to plant)” value is 30. The “Control of weed species after post-emergence application, AMAPA (100=total damage to plant; 0=no damage to plant)” value in experiment [2] was determined as 90. In experiment [3], the “Control of weed species after post-emergence application, EPHHL (100=total damage to plant; 0=no damage to plant)” value is 30. Further, in the experiment on Lolium perenne (LOLPE), the “Control of weed species after post-emergence application, LOLPE (100=total damage to plant; 0=no damage to plant)” value was 0. For the same compound, the “Control of weed species after post-emergence application, IPOHE (100=total damage to plant; 0=no damage to plant)” value in [4] turned out to be 40. In addition, in [5], the “Control of weed species after post-emergence application, ECHCG (100=total damage to plant; 0=no damage to plant)” value was determined as 50. Besides, the “Control of weed species after post-emergence application, CHEAL (100=total damage to plant; 0=no damage to plant)” value in experiment [6] stood at 20.

Consider `COP(=O)(C[n+]1ccc(-c2ccncn2)cn1)OC.O=S(=O)([O-])C(F)(F)F` [Compound A237], for which the “Control of weed species after post-emergence application, ELEIN (100=total damage to plant; 0=no damage to plant)” value in the experiment on Eleusine indica (ELEIN) is listed as 70. Further, in experiment [1], the “Control of weed species after post-emergence application, DIGSA (100=total damage to plant; 0=no damage to plant)” value is 50. Further, in the experiment on Setaria faberi (SETFA), the “Control of weed species after post-emergence application, SETFA (100=total damage to plant; 0=no damage to plant)” value is listed as 20. In addition, the “Control of weed species after post-emergence application, AMAPA (100=total damage to plant; 0=no damage to plant)” value in experiment [2] is recorded as 60. For the same compound, the “Control of weed species after post-emergence application, EPHHL (100=total damage to plant; 0=no damage to plant)” value in experiment [3] is reported as 0. The “Control of weed species after post-emergence application, LOLPE (100=total damage to plant; 0=no damage to plant)” value in the experiment on Lolium perenne (LOLPE) was 10. Further, in experiment [4], the “Control of weed species after post-emergence application, IPOHE (100=total damage to plant; 0=no damage to plant)” value worked out at 50. Also, the “Control of weed species after post-emergence application, ECHCG (100=total damage to plant; 0=no damage to plant)” value in [5] is 10. The “Control of weed species after post-emergence application, CHEAL (100=total damage to plant; 0=no damage to plant)” value in [6] worked out at 10.

Regarding `COP(=O)(C[n+]1ccc(-c2ncccn2)cn1)OC.O=S(=O)([O-])C(F)(F)F` [Compound A238, 1-(dimethoxyphosphorylmethyl)-4-pyrimidin-2-yl-pyridazin-1-ium trifluoromethanesulfonate], the “Control of weed species after post-emergence application, ELEIN (100=total damage to plant; 0=no damage to plant)” value in the experiment on Eleusine indica (ELEIN) was 30. In experiment [1], the “Control of weed species after post-emergence application, DIGSA (100=total damage to plant; 0=no damage to plant)” value was 50. Moreover, the “Control of weed species after post-emergence application, SETFA (100=total damage to plant; 0=no damage to plant)” value with Setaria faberi (SETFA) stood at 50. Further, in experiment [2], the “Control of weed species after post-emergence application, AMAPA (100=total damage to plant; 0=no damage to plant)” value is listed as 50. Also, the “Control of weed species after post-emergence application, EPHHL (100=total damage to plant; 0=no damage to plant)” value in [3] worked out at 50. The “Control of weed species after post-emergence application, LOLPE (100=total damage to plant; 0=no damage to plant)” value in the experiment with Lolium perenne (LOLPE) is given as 10. Moreover, in experiment [4], the “Control of weed species after post-emergence application, IPOHE (100=total damage to plant; 0=no damage to plant)” value is on record as 40. Besides, the “Control of weed species after post-emergence application, ECHCG (100=total damage to plant; 0=no damage to plant)” value in experiment [5] came out at 40. The “Control of weed species after post-emergence application, CHEAL (100=total damage to plant; 0=no damage to plant)” value in [6] is 20.
